Experiments:
Butyrylcholinesterase = Butyrylcholinesterase (Rattus norvegicus, UniProt Q9JKC1); test: Inhibition of BChE from rat serum by Ellmans method; format: cell-free
Acetylcholinesterase = molecular target: T1, Acetylcholinesterase (Rattus norvegicus, UniProt P37136); test: Inhibition of AChE from rat cortex homogenate by Ellmans method
T1 sequence (P37136 whole entry): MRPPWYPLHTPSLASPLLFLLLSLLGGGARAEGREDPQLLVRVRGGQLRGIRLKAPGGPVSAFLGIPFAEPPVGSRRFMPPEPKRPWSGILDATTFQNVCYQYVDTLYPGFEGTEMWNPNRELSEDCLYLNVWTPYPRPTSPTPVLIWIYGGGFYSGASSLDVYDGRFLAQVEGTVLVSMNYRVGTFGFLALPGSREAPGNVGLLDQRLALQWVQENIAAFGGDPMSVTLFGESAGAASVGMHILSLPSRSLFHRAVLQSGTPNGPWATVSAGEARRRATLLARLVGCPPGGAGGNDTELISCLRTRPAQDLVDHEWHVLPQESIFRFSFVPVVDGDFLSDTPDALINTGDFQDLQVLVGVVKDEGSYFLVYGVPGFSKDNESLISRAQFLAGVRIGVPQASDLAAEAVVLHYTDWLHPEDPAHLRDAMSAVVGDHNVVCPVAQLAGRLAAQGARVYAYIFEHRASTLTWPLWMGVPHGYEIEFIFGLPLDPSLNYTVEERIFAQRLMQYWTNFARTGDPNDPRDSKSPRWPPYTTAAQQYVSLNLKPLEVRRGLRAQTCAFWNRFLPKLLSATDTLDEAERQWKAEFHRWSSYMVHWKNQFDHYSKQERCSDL

Sequence of Butyrylcholinesterase (Q9JKC1 whole entry): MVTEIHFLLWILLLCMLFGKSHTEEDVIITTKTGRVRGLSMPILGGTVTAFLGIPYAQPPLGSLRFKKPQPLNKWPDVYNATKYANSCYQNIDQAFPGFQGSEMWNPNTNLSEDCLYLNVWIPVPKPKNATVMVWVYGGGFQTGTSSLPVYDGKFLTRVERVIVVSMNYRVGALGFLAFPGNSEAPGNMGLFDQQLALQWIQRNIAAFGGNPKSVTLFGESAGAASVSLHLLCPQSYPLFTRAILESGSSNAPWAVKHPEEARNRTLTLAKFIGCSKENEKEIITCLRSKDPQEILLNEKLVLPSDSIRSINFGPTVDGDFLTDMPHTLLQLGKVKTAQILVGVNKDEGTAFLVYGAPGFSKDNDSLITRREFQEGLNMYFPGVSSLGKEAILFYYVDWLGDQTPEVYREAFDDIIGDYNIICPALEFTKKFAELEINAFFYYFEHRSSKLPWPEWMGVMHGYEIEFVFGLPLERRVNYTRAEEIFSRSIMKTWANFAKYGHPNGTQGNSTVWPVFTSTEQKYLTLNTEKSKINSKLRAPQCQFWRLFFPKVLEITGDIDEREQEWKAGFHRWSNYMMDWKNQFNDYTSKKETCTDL

SMILES	IC50 (Butyrylcholinesterase)	IC50 (Acetylcholinesterase)
CCN(CC)Cc1ccc(OCCCCCCN2CC[C@@]34C=C[C@H](O)C[C@@H]3Oc3c(OC)ccc(c34)C2)cc1	41000 nM	8.86 nM
COc1ccc2c3c1O[C@H]1C[C@@H](O)C=C[C@@]31CCN(CCCCCOc1ccc(CN3CCCCC3)cc1)C2	29000 nM	–
COc1ccc2c3c1O[C@H]1C[C@@H](O)C=C[C@@]31CCN(CCCCOc1ccc(CN3CCCCC3)cc1)C2	28000 nM	12.4 nM
CCN(CC)Cc1ccc(OCCCCN2CC[C@@]34C=C[C@H](O)C[C@@H]3Oc3c(OC)ccc(c34)C2)cc1	34000 nM	14.6 nM
COc1ccc2c3c1O[C@H]1C[C@@H](O)C=C[C@@]31CCN(CCCCCCCCCOc1ccc(CN3CCCCC3)cc1)C2	64000 nM	88.1 nM
COc1ccc2c3c1O[C@H]1C[C@@H](O)C=C[C@@]31CCN(CCCCOc1ccc(C(=O)N3CCCC3)cc1)C2	5600 nM	53.8 nM
COc1ccc2c3c1O[C@H]1C[C@@H](O)C=C[C@@]31CCN(CCCCOC1CCN(Cc3ccccc3)CC1)C2	4300 nM	306 nM
COc1ccc2c3c1O[C@H]1C[C@@H](O)C=C[C@@]31CCN(CCCCCCOC1CCN(Cc3ccccc3)CC1)C2	5500 nM	222 nM
COc1ccc2c3c1O[C@H]1C[C@@H](O)C=C[C@@]31CCN(CCCCCCOc1ccc(C(=O)N3CCCC3)cc1)C2	9400 nM	122 nM
COc1ccc2c3c1O[C@H]1C[C@@H](O)C=C[C@@]31CCN(CCCCCCCCOc1ccc(CN3CCCCC3)cc1)C2	53000 nM	34.7 nM
COc1ccc2c3c1O[C@H]1C[C@@H](O)C=C[C@@]31CCN(CCCCCCOc1cccc(C(C)N3CCOCC3)c1)C2 (some centres not stated)	5800 nM	154 nM
COc1ccc2c3c1O[C@H]1C[C@@H](O)C=C[C@@]31CCN(CCCCCCCCCCOc1ccc(CN3CCCCC3)cc1)C2	93000 nM	61.2 nM
COc1ccc2c3c1O[C@H]1C[C@@H](O)C=C[C@@]31CCN(CCCCCCOc1ccc(CN3CCCCC3)cc1)C2	33000 nM	5.62 nM
COc1ccc2c3c1O[C@H]1C[C@@H](O)C=C[C@@]31CCN(CCCOc1ccc(CN3CCCCC3)cc1)C2	24000 nM	18 nM
COc1ccc2c3c1O[C@H]1C[C@@H](O)C=C[C@@]31CCN(CCCCCCOc1ccc(CN3CCOCC3)cc1)C2	3900 nM	113 nM
COc1ccc2c3c1O[C@H]1C[C@@H](O)C=C[C@@]31CCN(CCCCOc1ccc(CN3CCOCC3)cc1)C2	3300 nM	99.1 nM
COc1ccc2c3c1O[C@H]1C[C@@H](O)C=C[C@@]31CCN(CCCCOc1cccc(C(C)N3CCOCC3)c1)C2 (some centres not stated)	7100 nM	94.1 nM
COc1ccc2c3c1O[C@H]1C[C@@H](O)C=C[C@@]31CCN(CCCCCCCCCCCCOc1ccc(CN3CCCCC3)cc1)C2	1200 nM	58.1 nM
COc1ccc2c3c1O[C@H]1C[C@@H](O)C=C[C@@]31CCN(CCOc1ccc(CN3CCCCC3)cc1)C2	21000 nM	24.5 nM
